# Results as given in patent US20080261310A1, “IN VITRO ROOTING OF HOODIA PLANTS” (CONOPCO, INC., D/B/A/ UNILEVER, priority 2007, published 2008).
# Tested on: Hoodia explants
# Experiment: In vitro rooting of Hoodia explants on rooting media (basal salts, phytohormones, charcoal)
# Type: cell-based
# Conditions: experiment 11 medium with just IBA or just NAA alone
# Experimental: The explants are placed onto rooting medium 1-2 cm deep in the medium in an erect position. The distance between the explants is the same as for the multiplication phase, although they may be placed closer (i.e. about 0.5-1 cm apart), as they are no longer producing new shoots. The rooted plans are kept in the rooting medium under conditions of darkness at temperature of 26±2° C., typically for about 2-3 weeks, and later are placed under light until roots develop before going into the greenhouse for hardening. In all the multiplication and later rooting trials, the experiments were carried out in a randomised factorial design with at least four replicates per treatment. The student's t-test was used to determine significant difference between the phytohormone treatments. P values ≦0.05 was considered significant. This example investigated various concentrations basal salt medium, vitamins (those in M&S medium, always included at full strength), and various phytohormones on rooting. Each experiment was replicated four times and statistical analysis has been carried out as described above.
row,Structure (SMILES),root formation when experiment 11 was repeated with a single auxin
1,"O=C(O)CCCc1c[nH]c2ccccc12 [IBA, indole-3-butyric acid]",no roots could be obtained
2,"O=C(O)Cc1cccc2ccccc12 [NAA, α-naphthalene acetic acid]",no roots could be obtained
